From patent publication US12037344B2, “NLRP3 modulators” (INNATE TUMOR IMMUNITY, INC., priority 2018, dated 2024)
Counter-ions that a name gives are not always drawn.

Assays:
[1] = tested on: THP-1 cells; experiment: Measurement of IL-1β production, hTRF protocol (second alternative procedure), THP-1 cells; assay type: cell-based, human; settings: Homo sapiens, THP-1, IL-1β production, human cells; read-out: NLRP3 hILIB EC50
Method in brief: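 THP-1 cells differentiated overnight with 50 ng/ml PMA, then plated at 50,000 cells/well in RPMI with 2% FBS onto serial compound dilutions (top final concentration 10 μM) for 2 hours at 37° C. Supernatant IL-1β measured by hTRF (antibodies at 1:40, overnight at 4° C), read at 665/615 nm against a standard curve.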

[2] = molecular target: T1, TLR8 (Homo sapiens, UniProt Q9NR97); experiment: In vitro human TLR8 binding reporter assay (HEK-Blue, NF-kB/AP1-inducible SEAP); assay type: cell-based; settings: activity range, read-out: TLR8 Agonist EC50
T1 construct: human HEK-Blue cells co-expressing a TLR7 or TLR8 gene
T1 sequence (Q9NR97 27-1041): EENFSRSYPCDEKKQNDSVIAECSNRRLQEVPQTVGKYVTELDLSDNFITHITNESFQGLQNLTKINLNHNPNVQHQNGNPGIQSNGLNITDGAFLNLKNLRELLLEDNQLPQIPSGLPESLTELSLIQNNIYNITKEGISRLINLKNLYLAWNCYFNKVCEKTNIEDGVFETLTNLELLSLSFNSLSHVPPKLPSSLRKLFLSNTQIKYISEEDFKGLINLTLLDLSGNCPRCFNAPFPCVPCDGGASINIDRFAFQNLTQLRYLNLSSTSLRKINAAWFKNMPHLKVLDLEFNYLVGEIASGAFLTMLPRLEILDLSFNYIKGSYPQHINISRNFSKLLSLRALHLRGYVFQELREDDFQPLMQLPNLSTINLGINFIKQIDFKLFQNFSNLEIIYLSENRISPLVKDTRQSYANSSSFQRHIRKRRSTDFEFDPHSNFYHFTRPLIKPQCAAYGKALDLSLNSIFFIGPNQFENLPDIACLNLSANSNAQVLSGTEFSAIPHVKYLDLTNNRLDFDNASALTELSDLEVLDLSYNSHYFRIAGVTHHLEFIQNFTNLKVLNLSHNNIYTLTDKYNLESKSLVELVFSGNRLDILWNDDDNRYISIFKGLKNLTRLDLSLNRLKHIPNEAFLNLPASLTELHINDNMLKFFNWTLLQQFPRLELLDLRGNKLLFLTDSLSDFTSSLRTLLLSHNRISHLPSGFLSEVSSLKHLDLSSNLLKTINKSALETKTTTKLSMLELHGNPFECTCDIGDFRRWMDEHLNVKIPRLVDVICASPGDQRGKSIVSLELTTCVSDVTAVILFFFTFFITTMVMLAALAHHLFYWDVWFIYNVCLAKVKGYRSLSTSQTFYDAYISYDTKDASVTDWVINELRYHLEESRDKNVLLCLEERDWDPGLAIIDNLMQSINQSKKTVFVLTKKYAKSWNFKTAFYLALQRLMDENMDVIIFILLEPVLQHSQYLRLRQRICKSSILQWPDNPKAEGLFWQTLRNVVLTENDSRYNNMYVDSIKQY
Method in brief: (§1)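 EC50s come from NF-kB/AP1-driven SEAP secretion in HEK-Blue cells expressing TLR7 or TLR8, measured with Quanti-Blue after an 18 h compound incubation. Maximal response is defined by a 50 μM reference standard.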

[3] = molecular target: T2, TLR7 (Homo sapiens, UniProt Q9NYK1); experiment: In vitro human TLR7 binding reporter assay (HEK-Blue, NF-kB/AP1-inducible SEAP); assay type: cell-based; settings: activity range, read-out: TLR7 Agonist EC50
T2 construct: human HEK-Blue cells co-expressing a TLR7 or TLR8 gene
T2 sequence (Q9NYK1 27-1049): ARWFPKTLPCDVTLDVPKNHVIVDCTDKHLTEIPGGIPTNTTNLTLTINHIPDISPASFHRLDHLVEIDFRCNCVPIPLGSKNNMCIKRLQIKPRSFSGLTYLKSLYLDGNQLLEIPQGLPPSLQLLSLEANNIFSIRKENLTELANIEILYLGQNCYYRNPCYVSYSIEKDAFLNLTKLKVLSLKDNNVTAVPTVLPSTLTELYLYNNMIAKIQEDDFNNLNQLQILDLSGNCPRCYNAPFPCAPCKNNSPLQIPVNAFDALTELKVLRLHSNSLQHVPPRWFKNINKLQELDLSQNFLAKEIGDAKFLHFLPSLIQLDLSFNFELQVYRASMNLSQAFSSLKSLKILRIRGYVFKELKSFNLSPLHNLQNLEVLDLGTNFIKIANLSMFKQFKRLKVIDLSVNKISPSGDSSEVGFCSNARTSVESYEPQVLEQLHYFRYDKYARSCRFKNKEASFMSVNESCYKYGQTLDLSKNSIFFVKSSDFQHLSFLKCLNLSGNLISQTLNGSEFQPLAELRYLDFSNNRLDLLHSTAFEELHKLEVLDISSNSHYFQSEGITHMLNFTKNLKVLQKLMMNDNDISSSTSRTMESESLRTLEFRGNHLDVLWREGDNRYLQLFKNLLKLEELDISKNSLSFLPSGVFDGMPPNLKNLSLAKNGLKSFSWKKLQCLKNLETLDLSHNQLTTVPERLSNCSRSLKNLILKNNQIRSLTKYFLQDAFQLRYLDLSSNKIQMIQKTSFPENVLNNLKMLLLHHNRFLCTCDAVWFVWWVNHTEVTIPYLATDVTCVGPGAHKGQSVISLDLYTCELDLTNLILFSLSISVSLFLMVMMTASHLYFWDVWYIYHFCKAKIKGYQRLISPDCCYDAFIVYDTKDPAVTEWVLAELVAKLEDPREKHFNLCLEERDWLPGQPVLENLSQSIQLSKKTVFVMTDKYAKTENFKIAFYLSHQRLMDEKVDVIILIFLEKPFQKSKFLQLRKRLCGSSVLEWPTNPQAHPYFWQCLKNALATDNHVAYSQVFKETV
Method in brief: as §1

SMILES | EC50 [1] [µM] | EC50 [2] [µM] | EC50 [3] [µM]
Cc1c(CN[C@H]2CCOC2)[nH]c2c1c(N)nc1cc(-c3cc[nH]n3)ccc12 [Example 469] | 0.84 | > 100 | > 100
CCN(Cc1[nH]c2c(c(N)nc3cc(-c4cc[nH]n4)ccc32)c1C)C(C)=O [Example 470] | 15.3 | > 100 | > 100
Nc1nc2cc(-c3cc[nH]n3)ccc2c2[nH]c(CN3[C@@H]4CC[C@H]3COC4)cc12 [Example 474] | 0.45 | > 100 | > 100
Nc1nc2cc(-c3cc[nH]n3)ccc2c2[nH]c(CCNS(=O)(=O)c3ccccc3)cc12 [Example 484] | 1.41 | > 100 | > 100
Nc1nc2cc(-c3cc[nH]n3)ccc2c2[nH]c(CCNC(=O)c3csc(Cl)n3)cc12 [Example 485] | 0.08 | > 100 | > 100
Nc1nc2cc(-c3cc[nH]n3)ccc2c2[nH]c(CN3CCOCC3)c(Cl)c12 [Example 486] | 0.13 | > 100 | > 100
CC(Cn1cc2c(N)nc3cc(-c4ccn[nH]4)ccc3c2n1)C(=O)N(C)C (stereo not drawn) [Example 488, 3-(4-amino-7-(1H-pyrazol-5-yl)-2H-pyrazolo[4,3-c]quinolin-2-yl)-N,N,2-trimethylpropanamide.TFA] | 1.15 | > 100 | > 100
CO[C@H](CO)Cn1cc2c(N)nc3cc(-c4cc[nH]n4)ccc3c2n1 [Example 489] | 0.77 | > 100 | > 100
Nc1nc2cc(-c3cc[nH]n3)ccc2c2[nH]c(CN3CC4(CCOC4)C3)cc12 [Example 492] | 0.76 | > 100 | > 100
Cc1nc(C(=O)NCCc2cc3c(N)nc4cc(-c5cc[nH]n5)ccc4c3[nH]2)co1 [Example 493] | 0.18 | > 100 | > 100
Cc1nc(C(=O)NCCc2cc3c(N)nc4cc(-c5cc[nH]n5)ccc4c3[nH]2)cs1 [Example 495] | 0.45 | > 100 | > 100
COCCS(=O)(=O)NCCc1cc2c(N)nc3cc(-c4cc[nH]n4)ccc3c2[nH]1 [Example 498] | 2.39 | > 100 | > 100
CC(C)(C)c1cccc(C(=O)NCCc2cc3c(N)nc4cc(-c5cc[nH]n5)ccc4c3[nH]2)n1 [Example 499] | 1.34 | > 100 | > 100
Nc1nc2cc(-c3cc[nH]n3)ccc2c2[nH]c(CCNC(=O)c3cnco3)cc12 [Example 500] | 0.37 | > 100 | > 100
Nc1nc2cc(-c3cc[nH]n3)ccc2c2nn(CCC(=O)N3CCOCC3)cc12 [Example 501] | 0.73 | > 100 | > 100
NC(=O)CCCn1cc2c(N)nc3cc(-c4cc[nH]n4)ccc3c2n1 [Example 502] | 1.68 | > 100 | > 100
Nc1nc2cc(-c3cc[nH]n3)ccc2c2nn(CCC(=O)N3CC(F)(F)C3)cc12 [Example 503] | 2.58 | > 100 | > 100
Nc1nc2cc(-c3cc[nH]n3)ccc2c2nn(CCC(=O)NC3CCC3)cc12 [Example 504] | 2.34 | > 100 | > 100

Results, then the compound that gave them:

EC50 [1] [µM] | EC50 [2] [µM] | EC50 [3] [µM] | SMILES
0.75 | > 100 | > 100 | Nc1nc2cc(-c3cc[nH]n3)ccc2c2[nH]c(CN3C[C@@H]4C[C@H]3CO4)cc12 [Example 471]
0.23 | > 100 | > 100 | CO[C@H]1CCN(Cc2cc3c(N)nc4cc(-c5cc[nH]n5)ccc4c3[nH]2)C1 [Example 472]
0.49 | > 100 | > 100 | Nc1nc2cc(-c3cc[nH]n3)ccc2c2[nH]c(CN3C[C@H]4CC[C@@H](C3)O4)cc12 [Example 473]
1.21 | > 100 | > 100 | CC(=O)N[C@H]1CCN(Cc2cc3c(N)nc4cc(-c5cc[nH]n5)ccc4c3[nH]2)C1 [Example 475]
0.51 | > 100 | > 100 | Nc1nc2cc(-c3cc[nH]n3)ccc2c2[nH]c(CN3CCCC3)cc12 [Example 476]
0.27 | > 100 | > 100 | Nc1nc2cc(-c3cc[nH]n3)ccc2c2[nH]c(CN3CC(F)(F)C3)cc12 [Example 477]
0.35 | > 100 | > 100 | Nc1nc2cc(-c3cc[nH]n3)ccc2c2[nH]c(CN[C@H]3CC[C@@H](CO)C3)cc12 [Example 478]
0.08 | > 100 | > 100 | COC1CN(Cc2cc3c(N)nc4cc(-c5cc[nH]n5)ccc4c3[nH]2)C1 [Example 479]
0.26 | > 100 | > 100 | Nc1nc2cc(-c3cc[nH]n3)ccc2c2[nH]c(CN3CC[C@@H](O)C3)cc12 [Example 480]
0.38 | > 100 | > 100 | CS(=O)(=O)NCCc1cc2c(N)nc3cc(-c4cc[nH]n4)ccc3c2[nH]1 [Example 481]
2.21 | > 100 | > 100 | CCS(=O)(=O)NCCc1cc2c(N)nc3cc(-c4cc[nH]n4)ccc3c2[nH]1 [Example 482]
1.1 | > 100 | > 100 | CC(C)S(=O)(=O)NCCc1cc2c(N)nc3cc(-c4cc[nH]n4)ccc3c2[nH]1 [Example 483]
0.37 | > 100 | > 100 | Nc1nc2cc(-c3cc[nH]n3)ccc2c2[nH]c(CN[C@H]3CCOC3)c(Cl)c12 [Example 487]
0.84 | > 100 | > 100 | Nc1nc2cc(-c3cc[nH]n3)ccc2c2[nH]c(CN3C[C@H]4COC[C@H]4C3)cc12 [Example 490]
1.17 | > 100 | > 100 | CN(Cc1cc2c(N)nc3cc(-c4cc[nH]n4)ccc3c2[nH]1)[C@H]1CCOC1 [Example 491]
1.89 | > 100 | > 100 | Nc1nc2cc(-c3cc[nH]n3)ccc2c2[nH]c(CNCCO)cc12 [Example 494]
0.05 | > 100 | > 100 | Nc1nc2cc(-c3cc[nH]n3)ccc2c2[nH]c(CNCCF)cc12 [Example 496]
0.05 | > 100 | > 100 | Nc1nc2cc(-c3cc[nH]n3)ccc2c2[nH]c(CNCC(F)(F)F)cc12 [Example 497]
